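Growth conditions: 96-well plates. Treatment: test compound, 48 hours, 5 concentrations. Analysis: linear interpolation between bracketing concentrations; unreached endpoints set to highest concentration. Here, GI50 denotes the concentration required for 50% inhibition of growth. The concentration for full growth arrest is given as TGI.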
Columns and labels:
Assay in all cases: inhibition of tumour cell growth, NCI panel, 48 h
MALME-3M melanoma = test system: MALME-3M melanoma
UO-31 renal = test system: UO-31 renal
MCF7 breast = test system: MCF7 breast
SNB-19 CNS = test system: SNB-19 CNS
SK-OV-3 ovarian = test system: SK-OV-3 ovarian
UACC-62 melanoma = test system: UACC-62 melanoma
HS 578T breast = test system: HS 578T breast
SF-295 CNS = test system: SF-295 CNS
NCI/ADR-RES ovarian = test system: NCI/ADR-RES ovarian
NCI-H460 lung = test system: NCI-H460 lung
HL-60(TB) leukemia = test system: HL-60(TB) leukemia
SR leukemia = test system: SR leukemia
HCT-15 colon = test system: HCT-15 colon
PC-3 prostate = test system: PC-3 prostate
K-562 leukemia = test system: K-562 leukemia
OVCAR-3 ovarian = test system: OVCAR-3 ovarian
LOX IMVI melanoma = test system: LOX IMVI melanoma
T-47D breast = test system: T-47D breast
COLO 205 colon = test system: COLO 205 colon
NCI-H23 lung = test system: NCI-H23 lung
SNB-75 CNS = test system: SNB-75 CNS
MOLT-4 leukemia = test system: MOLT-4 leukemia
SK-MEL-28 melanoma = test system: SK-MEL-28 melanoma
HOP-62 NSCLC = test system: HOP-62 NSCLC
SF-539 CNS = test system: SF-539 CNS
ACHN renal = test system: ACHN renal
HOP-92 NSCLC = test system: HOP-92 NSCLC
A498 renal = test system: A498 renal
BT-549 breast = test system: BT-549 breast

Structure (SMILES): COc1cccc(CC(C)=C(c2ccc(OCCN3CCCCC3)cc2)c2ccc(OCCN3CCCCC3)cc2)c1
- GI50 (MALME-3M melanoma): 1840 nM
- TGI (MALME-3M melanoma): 3810 nM
- GI50 (UO-31 renal): 1840 nM
- TGI (UO-31 renal): 3660 nM
- GI50 (MCF7 breast): 728 nM
- TGI (MCF7 breast): 2810 nM
- GI50 (SNB-19 CNS): 2110 nM
- TGI (SNB-19 CNS): 4130 nM
- GI50 (SK-OV-3 ovarian): 2200 nM
- TGI (SK-OV-3 ovarian): 4230 nM
- GI50 (UACC-62 melanoma): 2100 nM
- TGI (UACC-62 melanoma): 4170 nM
- GI50 (HS 578T breast): 1520 nM
- TGI (HS 578T breast): 4020 nM
- GI50 (SF-295 CNS): 2420 nM
- TGI (SF-295 CNS): 4820 nM
- GI50 (NCI/ADR-RES ovarian): 2100 nM
- TGI (NCI/ADR-RES ovarian): 4340 nM
- GI50 (NCI-H460 lung): 1960 nM
- TGI (NCI-H460 lung): 3930 nM
- GI50 (HL-60(TB) leukemia): 1780 nM
- TGI (HL-60(TB) leukemia): 4120 nM
- GI50 (SR leukemia): 392 nM
- TGI (SR leukemia): 1200 nM
- GI50 (HCT-15 colon): 992 nM
- TGI (HCT-15 colon): 2990 nM
- GI50 (PC-3 prostate): 1830 nM
- TGI (PC-3 prostate): 3750 nM
- GI50 (K-562 leukemia): 315 nM
- TGI (K-562 leukemia): 802 nM
- GI50 (OVCAR-3 ovarian): 1950 nM
- TGI (OVCAR-3 ovarian): 4040 nM
- GI50 (LOX IMVI melanoma): 1640 nM
- TGI (LOX IMVI melanoma): 3520 nM
- GI50 (T-47D breast): 1580 nM
- TGI (T-47D breast): 4060 nM
- GI50 (COLO 205 colon): 1410 nM
- TGI (COLO 205 colon): 3730 nM
- GI50 (NCI-H23 lung): 2130 nM
- TGI (NCI-H23 lung): 4470 nM
- GI50 (SNB-75 CNS): 1770 nM
- TGI (SNB-75 CNS): 3830 nM
- GI50 (MOLT-4 leukemia): 1500 nM
- TGI (MOLT-4 leukemia): 4010 nM
- GI50 (SK-MEL-28 melanoma): 2120 nM
- TGI (SK-MEL-28 melanoma): 4110 nM
- GI50 (HOP-62 NSCLC): 2080 nM
- TGI (HOP-62 NSCLC): 4210 nM
- GI50 (SF-539 CNS): 2110 nM
- TGI (SF-539 CNS): 4110 nM
- GI50 (ACHN renal): 2160 nM
- TGI (ACHN renal): 4070 nM
- GI50 (HOP-92 NSCLC): 612 nM
- TGI (HOP-92 NSCLC): 2590 nM
- GI50 (A498 renal): 1750 nM
- TGI (A498 renal): 3720 nM
- GI50 (BT-549 breast): 1930 nM
- TGI (BT-549 breast): 3820 nM

From PubChem BioAssay (NCI)
